Experimental data from patent US8084457B2, “Pharmaceutically active 4,6-disubstituted aminopyrimidine derivatives as modulators of protein kinases” (Lead Discovery Center GmbH, priority 2003, dated 2011).

Key:
Assay type in all cases: biochemical
Settings in all cases: 10 μM of compound, in comparison to DMSO (0% inhibition)
p56 Lck = p56 Lck (Homo sapiens, UniProt P06239); assay: General kinase assay, selectivity panel: p56 Lck
Protocol: (§1) The inhibitory effect of compounds according to the present invention on the activity of protein kinases, depicted in Table 1, can be measured according to the following protocol:
(§2) Pipettinq Sequence: • 1) Add 10 μl 4 fold concentrated Substrate+4 fold concentrated ATP in 3 fold concentrated Reaction Buffer to each well of Assay Plate • 2) Add 10 μl 4 fold concentrated inhibitor in 4% DMSO in H2O to each well except to C− and C+ wells • 3) Add 10 μl 4% DMSO in H2O to C− and C+ wells • 4) Add 10 μl 500 mM EDTA in H2O to − wells • 5) Add 10 μl 50 μCi/ml Adenosine 5′-[γ-^33P]triphosphate in H2O to each well • 6) Add 10 μl 4 fold concentrated kinase in Reaction Buffer to each well • 7) Incubate 1 hr at room temperature • 8) Add 10 μl 50 mM EDTA in H2O to each well except to C− wells • 9) Prepare MAPH plates by adding 200 μl 0.75% H3PO4 to each well • 10) Exhaust 0.75% H3PO4 using Millipore vacuum station • 11) Add 60 μl 0.75% H3PO4 to each well of MAPH Filter Plate • 12) Transfer 30 μl sample per well from Assay Plate to corresponding well of MAPH Filter Plate • 13) Incubate 30 min at room temperature • 14) Wash each well of MAPH Filter Plates 3× with 200 μl 0.75% H3PO4 using Millipore vacuum station. • 15) Add 20 μl Scintillation Liquid to each well of MAPH Filter Plate • 16) Seal MAPH Filter Plate • 17) Store MAPH Filter Plate 30 min in darkness • 18) Quantify radioactivity
(§3) The activity of these protein kinases is depicted as % inhibition in the presence of 10 μM of compound in comparison to DMSO (0% inhibition).

PDGFR = assay: General kinase assay, selectivity panel: PDGFR
Protocol: as §1, §2, §3

Abl = Abl (Homo sapiens, UniProt P00519); assay: General kinase assay, selectivity panel: Abl
Protocol: as §1, §2, §3

CDK1 = CDK1 (Homo sapiens, UniProt P06493); assay: General kinase assay, selectivity panel: CDK1
Protocol: as §1, §2, §3

GSK-3β = GSK-3β (Homo sapiens, UniProt P49841); assay: General kinase assay, selectivity panel: GSK-3β
Protocol: as §1, §2, §3

EGFR = EGFR (Homo sapiens, UniProt P00533); assay: General kinase assay, selectivity panel: EGFR
Protocol: as §1, §2, §3

c-Kit = c-Kit (Homo sapiens, UniProt P10721); assay: General kinase assay, selectivity panel: c-Kit
Protocol: as §1, §2, §3

GSK-3β, sequence (P49841 whole entry, species assumed): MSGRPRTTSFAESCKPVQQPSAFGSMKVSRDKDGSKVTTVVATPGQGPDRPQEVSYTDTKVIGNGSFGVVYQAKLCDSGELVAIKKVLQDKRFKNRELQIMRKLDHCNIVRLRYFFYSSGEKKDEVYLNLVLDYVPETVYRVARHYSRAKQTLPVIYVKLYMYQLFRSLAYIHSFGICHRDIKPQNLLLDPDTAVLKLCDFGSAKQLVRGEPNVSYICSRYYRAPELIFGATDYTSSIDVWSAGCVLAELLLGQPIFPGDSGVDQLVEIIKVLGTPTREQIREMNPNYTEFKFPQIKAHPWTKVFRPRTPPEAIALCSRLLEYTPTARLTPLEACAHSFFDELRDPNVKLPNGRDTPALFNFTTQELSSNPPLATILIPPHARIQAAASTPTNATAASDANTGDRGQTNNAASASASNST
EGFR, sequence (P00533 25-1210, species assumed): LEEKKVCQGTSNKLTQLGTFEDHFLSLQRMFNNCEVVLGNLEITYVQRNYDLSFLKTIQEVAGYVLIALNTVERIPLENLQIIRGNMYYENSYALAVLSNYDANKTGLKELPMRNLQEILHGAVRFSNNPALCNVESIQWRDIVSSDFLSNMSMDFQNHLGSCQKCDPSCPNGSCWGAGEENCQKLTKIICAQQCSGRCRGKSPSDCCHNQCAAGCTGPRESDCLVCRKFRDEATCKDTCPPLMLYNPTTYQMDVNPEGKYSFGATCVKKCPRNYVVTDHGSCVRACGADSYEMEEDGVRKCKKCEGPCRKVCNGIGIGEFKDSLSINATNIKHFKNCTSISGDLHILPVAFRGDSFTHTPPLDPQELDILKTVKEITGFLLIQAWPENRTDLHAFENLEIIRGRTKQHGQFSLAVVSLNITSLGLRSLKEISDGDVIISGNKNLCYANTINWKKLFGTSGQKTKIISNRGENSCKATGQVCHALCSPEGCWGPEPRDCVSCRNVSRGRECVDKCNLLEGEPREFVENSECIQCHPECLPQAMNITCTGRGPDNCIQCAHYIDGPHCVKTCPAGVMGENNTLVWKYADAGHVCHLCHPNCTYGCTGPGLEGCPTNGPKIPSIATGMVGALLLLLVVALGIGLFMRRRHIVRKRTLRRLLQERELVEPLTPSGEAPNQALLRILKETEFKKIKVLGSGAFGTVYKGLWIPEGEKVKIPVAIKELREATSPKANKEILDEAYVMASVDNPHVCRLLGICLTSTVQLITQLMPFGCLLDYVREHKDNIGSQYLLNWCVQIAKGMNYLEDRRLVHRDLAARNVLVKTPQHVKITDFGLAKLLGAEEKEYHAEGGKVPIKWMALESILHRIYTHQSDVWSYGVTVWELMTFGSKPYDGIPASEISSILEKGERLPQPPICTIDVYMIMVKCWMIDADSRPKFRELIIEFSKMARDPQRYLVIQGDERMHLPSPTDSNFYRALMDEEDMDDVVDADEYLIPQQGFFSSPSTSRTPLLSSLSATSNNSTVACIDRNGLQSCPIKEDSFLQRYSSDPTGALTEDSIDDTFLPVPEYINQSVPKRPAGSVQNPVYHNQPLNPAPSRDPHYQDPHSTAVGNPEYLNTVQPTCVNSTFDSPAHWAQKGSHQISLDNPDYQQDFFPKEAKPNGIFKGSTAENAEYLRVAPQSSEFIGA
p56 Lck, sequence (P06239 whole entry): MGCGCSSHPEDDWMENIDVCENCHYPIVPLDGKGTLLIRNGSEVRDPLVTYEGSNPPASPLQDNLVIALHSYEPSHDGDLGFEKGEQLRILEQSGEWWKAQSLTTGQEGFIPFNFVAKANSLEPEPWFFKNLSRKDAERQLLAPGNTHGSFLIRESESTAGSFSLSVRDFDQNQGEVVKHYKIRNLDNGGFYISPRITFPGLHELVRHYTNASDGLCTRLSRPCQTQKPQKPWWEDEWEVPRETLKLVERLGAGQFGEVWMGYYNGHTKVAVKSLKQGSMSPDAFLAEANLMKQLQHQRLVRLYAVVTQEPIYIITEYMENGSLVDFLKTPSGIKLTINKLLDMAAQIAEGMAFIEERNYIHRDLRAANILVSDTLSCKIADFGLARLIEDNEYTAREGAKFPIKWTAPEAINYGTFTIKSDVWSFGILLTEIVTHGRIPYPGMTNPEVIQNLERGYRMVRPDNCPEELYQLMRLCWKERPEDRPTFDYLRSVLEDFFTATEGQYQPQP
Abl, sequence (P00519 whole entry, species assumed): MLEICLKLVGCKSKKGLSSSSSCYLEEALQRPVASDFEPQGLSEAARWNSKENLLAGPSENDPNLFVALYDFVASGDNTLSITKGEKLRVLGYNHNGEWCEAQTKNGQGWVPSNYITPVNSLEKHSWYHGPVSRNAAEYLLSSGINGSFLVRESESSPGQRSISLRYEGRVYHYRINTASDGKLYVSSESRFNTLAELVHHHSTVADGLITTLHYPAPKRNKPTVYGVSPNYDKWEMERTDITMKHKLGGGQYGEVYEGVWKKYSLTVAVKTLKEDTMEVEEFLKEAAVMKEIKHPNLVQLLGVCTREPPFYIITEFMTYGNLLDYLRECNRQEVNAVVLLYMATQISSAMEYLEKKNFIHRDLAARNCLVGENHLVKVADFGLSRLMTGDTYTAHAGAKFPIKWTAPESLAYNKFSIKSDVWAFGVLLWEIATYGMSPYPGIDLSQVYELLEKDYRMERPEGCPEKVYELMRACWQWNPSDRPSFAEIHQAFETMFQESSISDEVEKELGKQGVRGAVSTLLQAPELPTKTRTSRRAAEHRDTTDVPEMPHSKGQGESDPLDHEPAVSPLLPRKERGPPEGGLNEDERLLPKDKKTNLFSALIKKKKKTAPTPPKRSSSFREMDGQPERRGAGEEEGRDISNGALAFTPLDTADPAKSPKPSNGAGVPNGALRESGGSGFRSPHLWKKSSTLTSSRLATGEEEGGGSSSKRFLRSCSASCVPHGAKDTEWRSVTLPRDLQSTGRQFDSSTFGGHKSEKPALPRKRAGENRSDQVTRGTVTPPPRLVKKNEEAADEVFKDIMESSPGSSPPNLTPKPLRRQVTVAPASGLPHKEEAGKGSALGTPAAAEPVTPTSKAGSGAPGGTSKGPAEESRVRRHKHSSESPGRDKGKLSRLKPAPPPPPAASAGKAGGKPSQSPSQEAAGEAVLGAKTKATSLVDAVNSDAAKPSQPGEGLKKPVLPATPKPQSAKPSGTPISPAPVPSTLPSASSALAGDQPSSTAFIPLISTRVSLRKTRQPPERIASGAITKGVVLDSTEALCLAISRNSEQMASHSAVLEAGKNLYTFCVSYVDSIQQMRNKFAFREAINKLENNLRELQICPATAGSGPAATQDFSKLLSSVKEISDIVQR
CDK1, sequence (P06493 whole entry, species assumed): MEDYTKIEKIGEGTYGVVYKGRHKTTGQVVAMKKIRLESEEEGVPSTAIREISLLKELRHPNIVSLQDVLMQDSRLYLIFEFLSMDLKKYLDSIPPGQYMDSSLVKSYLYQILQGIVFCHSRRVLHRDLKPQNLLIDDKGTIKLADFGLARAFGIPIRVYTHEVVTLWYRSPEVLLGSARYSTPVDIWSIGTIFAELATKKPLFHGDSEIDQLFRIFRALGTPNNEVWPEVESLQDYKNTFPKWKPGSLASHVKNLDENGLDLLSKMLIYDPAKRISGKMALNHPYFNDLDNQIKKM
CDK1, sequence (P14635 whole entry partner, species assumed): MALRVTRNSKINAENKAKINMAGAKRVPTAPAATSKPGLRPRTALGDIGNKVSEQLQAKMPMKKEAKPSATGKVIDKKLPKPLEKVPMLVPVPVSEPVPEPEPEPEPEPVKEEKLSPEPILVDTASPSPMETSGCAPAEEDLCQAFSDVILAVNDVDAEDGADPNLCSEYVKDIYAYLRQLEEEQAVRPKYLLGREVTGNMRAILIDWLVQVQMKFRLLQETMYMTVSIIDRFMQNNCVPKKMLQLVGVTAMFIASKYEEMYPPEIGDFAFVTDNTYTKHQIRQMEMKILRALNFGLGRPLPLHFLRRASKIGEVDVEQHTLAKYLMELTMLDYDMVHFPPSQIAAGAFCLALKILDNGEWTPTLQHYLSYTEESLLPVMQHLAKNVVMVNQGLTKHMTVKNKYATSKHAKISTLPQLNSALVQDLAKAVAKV
c-Kit, sequence (P10721 26-976): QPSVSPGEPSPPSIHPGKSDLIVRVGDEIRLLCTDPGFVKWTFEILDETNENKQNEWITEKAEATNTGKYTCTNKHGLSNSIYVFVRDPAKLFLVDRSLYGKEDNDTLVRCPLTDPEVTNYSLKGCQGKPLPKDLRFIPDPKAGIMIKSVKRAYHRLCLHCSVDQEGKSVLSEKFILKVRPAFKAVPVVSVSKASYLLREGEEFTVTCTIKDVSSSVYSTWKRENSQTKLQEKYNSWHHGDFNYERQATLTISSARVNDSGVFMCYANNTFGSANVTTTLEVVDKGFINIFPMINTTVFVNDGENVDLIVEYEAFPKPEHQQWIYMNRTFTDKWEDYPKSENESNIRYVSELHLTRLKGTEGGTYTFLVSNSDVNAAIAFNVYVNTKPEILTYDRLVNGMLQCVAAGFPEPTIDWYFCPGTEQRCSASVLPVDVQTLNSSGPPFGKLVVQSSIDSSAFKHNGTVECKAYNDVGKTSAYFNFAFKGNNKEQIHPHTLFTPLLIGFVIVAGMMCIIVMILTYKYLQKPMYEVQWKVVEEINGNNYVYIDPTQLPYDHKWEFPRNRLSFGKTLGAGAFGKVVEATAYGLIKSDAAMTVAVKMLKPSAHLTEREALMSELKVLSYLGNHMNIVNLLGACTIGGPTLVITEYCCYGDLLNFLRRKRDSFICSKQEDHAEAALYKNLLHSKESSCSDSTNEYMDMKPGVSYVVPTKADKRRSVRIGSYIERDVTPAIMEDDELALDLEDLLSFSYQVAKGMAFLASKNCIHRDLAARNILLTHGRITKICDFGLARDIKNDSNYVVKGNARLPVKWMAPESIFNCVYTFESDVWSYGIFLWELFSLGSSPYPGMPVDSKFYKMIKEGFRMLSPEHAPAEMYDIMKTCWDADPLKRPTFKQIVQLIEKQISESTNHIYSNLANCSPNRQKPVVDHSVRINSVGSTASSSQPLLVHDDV

Row | Structure (SMILES) | p56 Lck (% inhibition) (p56 Lck) | PDGFR (% inhibition) (PDGFR) | Abl (% inhibition) (Abl) | CDK1 (% inhibition) (CDK1) | GSK-3β (% inhibition) (GSK-3β) | EGFR (% inhibition) (EGFR) | c-Kit (% inhibition) (c-Kit)
1 | COc1ccccc1-c1cc(Nc2ccc(NC(=O)c3ccc(N4CCN(C)CC4)cc3)cc2)ncn1 [Compound 49] | b (inhibition between 80 and 50%: b) | c (inhibition between 50 and 30%: c) | b (inhibition between 80 and 50%: b) | a (inhibition greater than 80%: a) | b (inhibition between 80 and 50%: b) | b (inhibition between 80 and 50%: b) | b (inhibition between 80 and 50%: b)
2 | COc1ccccc1-c1cc(Nc2ccc(NC(C)=O)cc2)ncn1 [Compound 10] | b (inhibition between 80 and 50%: b) | c (inhibition between 50 and 30%: c) |  | a (inhibition greater than 80%: a) | b (inhibition between 80 and 50%: b) | b (inhibition between 80 and 50%: b) | b (inhibition between 80 and 50%: b)
3 | COc1ccccc1-c1cc(Nc2ccc(NC(=O)C3(N)CCCCC3)cc2)ncn1 [Compound 66] | b (inhibition between 80 and 50%: b) | b (inhibition between 80 and 50%: b) | b (inhibition between 80 and 50%: b) | b (inhibition between 80 and 50%: b) |  | a (inhibition greater than 80%: a) | b (inhibition between 80 and 50%: b)
4 | COc1ccccc1-c1cc(Nc2ccc(NC(=O)[C@H]3CCCCN3)cc2)ncn1 [Compound 69] | a (inhibition greater than 80%: a) | b (inhibition between 80 and 50%: b) | b (inhibition between 80 and 50%: b) | b (inhibition between 80 and 50%: b) |  | a (inhibition greater than 80%: a) | b (inhibition between 80 and 50%: b)
5 | COc1ccccc1-c1cc(Nc2ccc(NC(=O)NC3CCCCC3)cc2)ncn1 [Compound 38] | b (inhibition between 80 and 50%: b) | b (inhibition between 80 and 50%: b) |  | b (inhibition between 80 and 50%: b) | c (inhibition between 50 and 30%: c) | c (inhibition between 50 and 30%: c) | b (inhibition between 80 and 50%: b)
6 | CC(C)Oc1ccccc1-c1cc(Nc2ccc(NC(=O)c3ccc(N)cc3)cc2)ncn1 [Compound 58] | a (inhibition greater than 80%: a) |  |  | a (inhibition greater than 80%: a) | a (inhibition greater than 80%: a) | b (inhibition between 80 and 50%: b) | 
7 | COc1ccccc1-c1cc(Nc2ccc(N)cc2)ncn1 [Compound 22] | b (inhibition between 80 and 50%: b) | c (inhibition between 50 and 30%: c) |  | a (inhibition greater than 80%: a) | c (inhibition between 50 and 30%: c) | a (inhibition greater than 80%: a) | b (inhibition between 80 and 50%: b)
8 | COc1ccccc1-c1cc(Nc2ccc(C(=O)NC3CCCNC3)cc2)ncn1 (stereo not shown) [Compound 86] | b (inhibition between 80 and 50%: b) | b (inhibition between 80 and 50%: b) | c (inhibition between 50 and 30%: c) | a (inhibition greater than 80%: a) | b (inhibition between 80 and 50%: b) | a (inhibition greater than 80%: a) | 
9 | COc1ccccc1-c1cc(Nc2ccc(NC(=O)c3ccc(N)cc3)cc2)ncn1 [Compound 8] | b (inhibition between 80 and 50%: b) |  |  | a (inhibition greater than 80%: a) |  |  | b (inhibition between 80 and 50%: b)
10 | COc1ccccc1-c1cc(Nc2ccc(NC(=O)Cc3ccccc3)cc2)ncn1 [Compound 71] | b (inhibition between 80 and 50%: b) | b (inhibition between 80 and 50%: b) |  | a (inhibition greater than 80%: a) | c (inhibition between 50 and 30%: c) | c (inhibition between 50 and 30%: c) | b (inhibition between 80 and 50%: b)
11 | COc1ccccc1-c1cc(Nc2ccc(NC(=O)C3(N)CCCC3)cc2)ncn1 [Compound 68] | b (inhibition between 80 and 50%: b) | b (inhibition between 80 and 50%: b) | b (inhibition between 80 and 50%: b) | b (inhibition between 80 and 50%: b) |  | a (inhibition greater than 80%: a) | b (inhibition between 80 and 50%: b)
12 | COc1ccccc1-c1cc(Nc2ccc(NC(=O)[C@H]3CCCN3)cc2)ncn1 [Compound 91] | b (inhibition between 80 and 50%: b) | b (inhibition between 80 and 50%: b) | b (inhibition between 80 and 50%: b) | b (inhibition between 80 and 50%: b) | c (inhibition between 50 and 30%: c) | a (inhibition greater than 80%: a) | 
13 | COc1ccccc1-c1cc(Nc2ccc(NC(=O)[C@H]3Cc4ccccc4CN3)cc2)ncn1 [Compound 65] | b (inhibition between 80 and 50%: b) | b (inhibition between 80 and 50%: b) | b (inhibition between 80 and 50%: b) | b (inhibition between 80 and 50%: b) |  | a (inhibition greater than 80%: a) | b (inhibition between 80 and 50%: b)
14 | COc1ccccc1-c1cc(Nc2ccc(NC(=O)CC3CCCCN3)cc2)ncn1 (stereo not shown) [Compound 59] | b (inhibition between 80 and 50%: b) | b (inhibition between 80 and 50%: b) | b (inhibition between 80 and 50%: b) | a (inhibition greater than 80%: a) |  | a (inhibition greater than 80%: a) | b (inhibition between 80 and 50%: b)
15 | CCCS(=O)(=O)Nc1cc(Nc2cc(-c3cccc(N)c3)ncn2)ccc1C [Compound 116] | b (inhibition between 80 and 50%: b) | c (inhibition between 50 and 30%: c) |  | a (inhibition greater than 80%: a) | a (inhibition greater than 80%: a) | a (inhibition greater than 80%: a) | 
16 | Cc1ccc(Nc2cc(-c3cccc(N)c3)ncn2)cc1NS(C)(=O)=O [Compound 12] | b (inhibition between 80 and 50%: b) | c (inhibition between 50 and 30%: c) |  | a (inhibition greater than 80%: a) | a (inhibition greater than 80%: a) | a (inhibition greater than 80%: a) | b (inhibition between 80 and 50%: b)
